Measurements reported in the NIST ThermoML archive (doi:10.1021/je3011979).

Tests used:
[1] = excess molar enthalpy (molar enthalpy of mixing); xn = mol fraction of the nth substance listed; settings: 101 kPa, Liquid, Calvet calorimetry
[2] = xn = mol fraction of the nth substance listed; settings: 101 kPa, Liquid, Vibrating tube method

CCCOC(C)=O [propyl ethanoate] + CCCCCC
Settings | excess molar enthalpy [kcal/mol] | mass density [kg/m3]
[1], 291.15 K, x1 = 0.074 | 0.0657 | –
[1], 291.15 K, x1 = 0.1514 | 0.13 | –
[1], 291.15 K, x1 = 0.2307 | 0.179 | –
[1], 291.15 K, x1 = 0.3056 | 0.2204 | –
[1], 291.15 K, x1 = 0.3758 | 0.2481 | –
[1], 291.15 K, x1 = 0.4417 | 0.2598 | –
[1], 291.15 K, x1 = 0.4984 | 0.2651 | –
[1], 291.15 K, x1 = 0.5492 | 0.2605 | –
[1], 291.15 K, x1 = 0.5528 | 0.2598 | –
[1], 291.15 K, x1 = 0.6101 | 0.2459 | –
[1], 291.15 K, x1 = 0.6705 | 0.2275 | –
[1], 291.15 K, x1 = 0.7361 | 0.1953 | –
[1], 291.15 K, x1 = 0.8064 | 0.157 | –
[1], 291.15 K, x1 = 0.8762 | 0.111 | –
[1], 291.15 K, x1 = 0.9422 | 0.0588 | –
[1], 298.15 K, x1 = 0.0319 | 0.0246 | –
[1], 298.15 K, x1 = 0.0736 | 0.0648 | –
[1], 298.15 K, x1 = 0.145 | 0.126 | –
[1], 298.15 K, x1 = 0.2223 | 0.178 | –
[1], 298.15 K, x1 = 0.3011 | 0.2225 | –
[1], 298.15 K, x1 = 0.366 | 0.2481 | –
[1], 298.15 K, x1 = 0.4223 | 0.2639 | –
[1], 298.15 K, x1 = 0.503 | 0.2682 | –
[1], 298.15 K, x1 = 0.559 | 0.2615 | –
[1], 298.15 K, x1 = 0.6073 | 0.2495 | –
[1], 298.15 K, x1 = 0.6518 | 0.234 | –
[1], 298.15 K, x1 = 0.7091 | 0.2089 | –
[1], 298.15 K, x1 = 0.7653 | 0.177 | –
[1], 298.15 K, x1 = 0.8334 | 0.136 | –
[1], 298.15 K, x1 = 0.8989 | 0.0899 | –
[1], 298.15 K, x1 = 0.9494 | 0.0466 | –
[1], 318.15 K, x1 = 0.0748 | 0.0691 | –
[1], 318.15 K, x1 = 0.1298 | 0.122 | –
[1], 318.15 K, x1 = 0.2004 | 0.176 | –
[1], 318.15 K, x1 = 0.2777 | 0.2249 | –
[1], 318.15 K, x1 = 0.3479 | 0.2529 | –
[1], 318.15 K, x1 = 0.4119 | 0.2674 | –
[1], 318.15 K, x1 = 0.4746 | 0.2739 | –
[1], 318.15 K, x1 = 0.5084 | 0.2729 | –
[1], 318.15 K, x1 = 0.5582 | 0.2694 | –
[1], 318.15 K, x1 = 0.6039 | 0.2581 | –
[1], 318.15 K, x1 = 0.6543 | 0.2419 | –
[1], 318.15 K, x1 = 0.7123 | 0.2185 | –
[1], 318.15 K, x1 = 0.7753 | 0.185 | –
[1], 318.15 K, x1 = 0.8288 | 0.147 | –
[1], 318.15 K, x1 = 0.8906 | 0.0997 | –
[1], 318.15 K, x1 = 0.9452 | 0.0535 | –
[2], 291.15 K, x1 = 0.012 | – | 663.4
[2], 291.15 K, x1 = 0.0372 | – | 668
[2], 291.15 K, x1 = 0.0924 | – | 678.5
[2], 291.15 K, x1 = 0.1648 | – | 692.7
[2], 291.15 K, x1 = 0.2357 | – | 707
[2], 291.15 K, x1 = 0.3085 | – | 722.2
[2], 291.15 K, x1 = 0.3804 | – | 737.7
[2], 291.15 K, x1 = 0.442 | – | 751.4
[2], 291.15 K, x1 = 0.5117 | – | 767.2
[2], 291.15 K, x1 = 0.5781 | – | 782.6
[2], 291.15 K, x1 = 0.64 | – | 797.3
[2], 291.15 K, x1 = 0.702 | – | 812.3
[2], 291.15 K, x1 = 0.7697 | – | 829.1
[2], 291.15 K, x1 = 0.8208 | – | 842.2
[2], 291.15 K, x1 = 0.8835 | – | 858.4
[2], 291.15 K, x1 = 0.9247 | – | 869.3
[2], 291.15 K, x1 = 1 | – | 889.6
[2], 298.15 K, x1 = 0.0175 | – | 658
[2], 298.15 K, x1 = 0.035 | – | 661.2
[2], 298.15 K, x1 = 0.0831 | – | 670.3
[2], 298.15 K, x1 = 0.1535 | – | 683.9
[2], 298.15 K, x1 = 0.2218 | – | 697.6
[2], 298.15 K, x1 = 0.2836 | – | 710.3
[2], 298.15 K, x1 = 0.3539 | – | 724.9
[2], 298.15 K, x1 = 0.4197 | – | 739.4
[2], 298.15 K, x1 = 0.4795 | – | 752.7
[2], 298.15 K, x1 = 0.5417 | – | 766.9
[2], 298.15 K, x1 = 0.604 | – | 781.5
[2], 298.15 K, x1 = 0.6583 | – | 794.5
[2], 298.15 K, x1 = 0.7242 | – | 810.6
[2], 298.15 K, x1 = 0.7772 | – | 823.9
[2], 298.15 K, x1 = 0.8357 | – | 838.9
[2], 298.15 K, x1 = 0.8934 | – | 853.9
[2], 298.15 K, x1 = 0.9187 | – | 860.5
[2], 298.15 K, x1 = 0.9749 | – | 875.7
[2], 298.15 K, x1 = 1 | – | 882.5
[2], 318.15 K, x1 = 0.0304 | – | 641.7
[2], 318.15 K, x1 = 0.0796 | – | 650.7
[2], 318.15 K, x1 = 0.1381 | – | 661.7
[2], 318.15 K, x1 = 0.2079 | – | 675.3
[2], 318.15 K, x1 = 0.2642 | – | 686.6
[2], 318.15 K, x1 = 0.3318 | – | 700.5
[2], 318.15 K, x1 = 0.3997 | – | 714.9
[2], 318.15 K, x1 = 0.4505 | – | 725.9
[2], 318.15 K, x1 = 0.5124 | – | 739.7
[2], 318.15 K, x1 = 0.5708 | – | 752.9
[2], 318.15 K, x1 = 0.622 | – | 764.8
[2], 318.15 K, x1 = 0.6815 | – | 778.9
[2], 318.15 K, x1 = 0.7426 | – | 793.7
[2], 318.15 K, x1 = 0.7992 | – | 807.7
[2], 318.15 K, x1 = 0.8648 | – | 824.4
[2], 318.15 K, x1 = 0.9227 | – | 839.3
[2], 318.15 K, x1 = 1 | – | 859.8
[2], 328.15 K, x1 = 0.0253 | – | 631.3
[2], 328.15 K, x1 = 0.0749 | – | 640.2
[2], 328.15 K, x1 = 0.1369 | – | 651.6
[2], 328.15 K, x1 = 0.2052 | – | 664.7
[2], 328.15 K, x1 = 0.2719 | – | 677.8
[2], 328.15 K, x1 = 0.3322 | – | 690.1
[2], 328.15 K, x1 = 0.3986 | – | 704
[2], 328.15 K, x1 = 0.4614 | – | 717.6
[2], 328.15 K, x1 = 0.5209 | – | 730.7
[2], 328.15 K, x1 = 0.5809 | – | 744.3
[2], 328.15 K, x1 = 0.62 | – | 753.3
[2], 328.15 K, x1 = 0.6944 | – | 770.8
[2], 328.15 K, x1 = 0.7605 | – | 786.8
[2], 328.15 K, x1 = 0.8114 | – | 799.4
[2], 328.15 K, x1 = 0.8707 | – | 814.4
[2], 328.15 K, x1 = 0.9235 | – | 828
[2], 328.15 K, x1 = 1 | – | 848.3
